This is an account of results in patent publication US20250084039A1, “4-SUBSTITUTED AMINOISOQUINOLINE DERIVATIVES” (Purdue Research Foundation, priority 2016, published 2025).

The test system of one assay is NCI H1703 (NSCLC). The assay is described as follows: Activity against lung cancer cell line. The format is cell-based. To be noted: Homo sapiens, NCI-H1703.
A further assay concerns the target ABL1 phosphorylated (Homo sapiens (Human), UniProt P00519). The assay is described as follows: DiscoverX Kd Elect binding.
The test system of assay [1] is MV4-11. Put plainly: IC50 determination (proliferation assay, CellTiter-Blue). The class given is cell-based. Put shortly: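 MOLM14 and MV4-11 cells seeded about 18 h before compound addition (DMSO-diluted), then 72 h exposure.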
The next assay concerns the target FLT3 (D835V) (Homo sapiens (Human), UniProt P36888, D835V). Put plainly: DiscoverX Kd Elect binding. The text has this:
(§1) Although the current drugs on the market or in clinical trials are relatively successful in killing the AML leukemia cells, they currently are unable to deal with secondary mutations that occur after TKI treatment, such as FLT3 ([…]).

The next assay deals with FLT3 (ITD) (Homo sapiens, UniProt P36888, ITD). Put plainly: DiscoverX Kd Elect binding. To be noted: Kd FLT3 (ITD).
Source text: as §1

The target in a further assay is c-kit (Homo sapiens (Human), UniProt P10721). Put plainly: Reaction Biology HotSpot kinase assay. The class given is biochemical. To be noted: 500 nM compound, 100 μM radiolabeled ATP. Put shortly:
(§2)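 HotSpot 33P transfer format. Enzyme, substrate and 500 nM test compound sit together for 20 min, then labelled and unlabelled ATP totalling 100 μM are added and phosphorylation proceeds for 2 h at room temperature. Products are captured on P81 cellulose paper, and activity is expressed relative to DMSO.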

The test system of a further assay is K562. Put plainly: IC50 proliferation assay (Alamar Blue, 72 h). The format is cell-based.
Assay [2] has as its system MV4-11. The assay is described as follows: IC50 proliferation assay (Alamar Blue, 72 h). The class given is cell-based. To be noted: read-out: IC50 (proliferation inhibition) Cell line - MV4-11. The procedure, abridged: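 Cells seeded ~18 h before treatment with semi-serial compound dilutions made in DMSO then growth medium. After 72 h exposure, Alamar Blue added and read following 4 h further at 37 °C; IC50 for proliferation inhibition.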

Another assay deals with LRRK2 (Homo sapiens (Human), UniProt Q5S007). Put plainly: Reaction Biology HotSpot kinase assay. The class given is biochemical. To be noted: 500 nM compound; for inhibition at 0.5 µM: read-out: Percentage kinase inhibition LRRK2. Put shortly: (§3)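 Phosphotransfer from [γ-33P]ATP was quantified after filter binding on P81 paper. Conditions: 20 mM HEPES pH 7.5, 10 mM MgCl2, 0.1 mM Na3VO4, 2 mM DTT, 0.02 mg/mL BSA; ATP 100 μM final; 2 h at room temperature. Compound was dosed at 500 nM.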
LRRK2, sequence (Q5S007 whole entry): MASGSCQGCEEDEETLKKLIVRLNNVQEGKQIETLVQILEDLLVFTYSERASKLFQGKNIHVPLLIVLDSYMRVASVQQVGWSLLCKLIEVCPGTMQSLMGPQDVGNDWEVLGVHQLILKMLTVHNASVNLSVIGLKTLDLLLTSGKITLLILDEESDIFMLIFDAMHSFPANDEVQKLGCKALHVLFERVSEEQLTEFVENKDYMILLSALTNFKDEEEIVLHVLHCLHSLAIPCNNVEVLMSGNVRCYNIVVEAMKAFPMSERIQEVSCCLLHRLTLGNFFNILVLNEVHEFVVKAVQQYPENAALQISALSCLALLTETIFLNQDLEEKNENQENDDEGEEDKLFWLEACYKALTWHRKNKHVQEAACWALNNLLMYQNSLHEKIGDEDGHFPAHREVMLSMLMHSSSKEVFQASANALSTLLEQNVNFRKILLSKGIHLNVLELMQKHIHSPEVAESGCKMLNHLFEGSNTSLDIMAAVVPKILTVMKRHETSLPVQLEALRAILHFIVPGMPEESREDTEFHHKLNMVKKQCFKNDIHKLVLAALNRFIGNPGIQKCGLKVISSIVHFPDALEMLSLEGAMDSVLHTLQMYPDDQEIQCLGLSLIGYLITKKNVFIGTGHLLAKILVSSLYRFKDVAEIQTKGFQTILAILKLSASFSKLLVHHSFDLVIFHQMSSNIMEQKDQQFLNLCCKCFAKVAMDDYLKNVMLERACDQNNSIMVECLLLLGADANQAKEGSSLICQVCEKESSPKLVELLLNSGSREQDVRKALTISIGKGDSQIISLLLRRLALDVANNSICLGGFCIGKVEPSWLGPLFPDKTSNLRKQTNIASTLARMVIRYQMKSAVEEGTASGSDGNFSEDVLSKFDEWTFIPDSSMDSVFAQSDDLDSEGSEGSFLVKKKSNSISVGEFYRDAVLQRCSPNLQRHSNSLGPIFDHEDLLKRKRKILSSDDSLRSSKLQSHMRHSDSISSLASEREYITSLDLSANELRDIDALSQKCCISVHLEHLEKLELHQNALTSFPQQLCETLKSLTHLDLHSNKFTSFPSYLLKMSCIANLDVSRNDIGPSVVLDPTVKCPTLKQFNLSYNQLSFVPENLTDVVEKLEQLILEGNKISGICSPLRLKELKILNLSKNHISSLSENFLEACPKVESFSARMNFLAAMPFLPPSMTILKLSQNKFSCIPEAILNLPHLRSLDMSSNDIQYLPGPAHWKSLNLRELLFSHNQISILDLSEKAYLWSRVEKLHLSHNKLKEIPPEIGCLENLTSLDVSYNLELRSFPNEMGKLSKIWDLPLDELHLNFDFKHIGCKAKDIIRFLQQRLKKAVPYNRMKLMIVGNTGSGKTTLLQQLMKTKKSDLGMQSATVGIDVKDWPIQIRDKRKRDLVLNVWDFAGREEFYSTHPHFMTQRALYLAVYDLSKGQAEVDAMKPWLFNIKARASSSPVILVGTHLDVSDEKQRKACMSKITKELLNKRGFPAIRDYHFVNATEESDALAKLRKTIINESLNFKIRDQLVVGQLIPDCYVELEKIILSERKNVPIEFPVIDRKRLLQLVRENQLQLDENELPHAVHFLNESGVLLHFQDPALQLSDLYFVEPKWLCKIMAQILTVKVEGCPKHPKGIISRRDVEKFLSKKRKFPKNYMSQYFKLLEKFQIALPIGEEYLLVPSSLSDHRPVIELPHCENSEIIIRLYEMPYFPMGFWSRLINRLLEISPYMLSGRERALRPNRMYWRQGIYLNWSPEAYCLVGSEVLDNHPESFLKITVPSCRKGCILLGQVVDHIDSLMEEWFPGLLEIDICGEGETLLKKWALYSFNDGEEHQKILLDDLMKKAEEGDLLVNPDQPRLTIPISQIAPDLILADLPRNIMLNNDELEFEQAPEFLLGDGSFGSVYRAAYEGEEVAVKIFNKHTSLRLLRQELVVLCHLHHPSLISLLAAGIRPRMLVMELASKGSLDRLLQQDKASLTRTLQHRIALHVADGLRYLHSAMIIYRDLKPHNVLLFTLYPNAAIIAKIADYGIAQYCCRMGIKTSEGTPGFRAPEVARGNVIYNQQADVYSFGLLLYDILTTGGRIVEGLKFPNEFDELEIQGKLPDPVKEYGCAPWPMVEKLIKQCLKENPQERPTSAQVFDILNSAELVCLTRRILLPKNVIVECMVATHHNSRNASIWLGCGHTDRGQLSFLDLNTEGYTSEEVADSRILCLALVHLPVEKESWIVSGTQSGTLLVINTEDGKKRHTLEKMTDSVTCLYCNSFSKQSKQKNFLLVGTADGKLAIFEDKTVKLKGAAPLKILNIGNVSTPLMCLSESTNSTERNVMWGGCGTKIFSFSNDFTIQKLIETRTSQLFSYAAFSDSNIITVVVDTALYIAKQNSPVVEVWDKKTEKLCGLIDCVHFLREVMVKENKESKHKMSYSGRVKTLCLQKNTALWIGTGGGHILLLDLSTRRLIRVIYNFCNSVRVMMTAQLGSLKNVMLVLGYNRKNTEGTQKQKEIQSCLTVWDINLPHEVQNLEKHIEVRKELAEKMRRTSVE

Another assay deals with MUSK (Homo sapiens (Human), UniProt O15146). The assay is described as follows: Reaction Biology HotSpot kinase assay. The class given is biochemical. To be noted: 500 nM compound; for inhibition at 0.5 µM: read-out: Percentage kinase inhibition MUSK. The procedure, abridged:
as §3

The next assay has as its target c-Src (Homo sapiens (Human), UniProt P12931). Put plainly: Reaction Biology HotSpot kinase assay. The class given is biochemical. To be noted: 500 nM compound; for inhibition at 0.5 µM: read-out: Percentage kinase inhibition c-Src. The procedure, abridged:
as §3

A further assay concerns the target P38a/MAPK14 (Homo sapiens (Human), UniProt Q16539). The assay is described as follows: Reaction Biology HotSpot kinase assay. The class given is biochemical. To be noted: 500 nM compound; for inhibition at 0.5 µM: read-out: Percentage kinase inhibition P38a/MAPK14. The procedure, abridged:
as §3

For a further assay, the target named is LYN B (Homo sapiens (Human), UniProt P07948). Put plainly: Reaction Biology HotSpot kinase assay. The format is biochemical. To be noted: 500 nM compound; for inhibition at 0.5 µM: read-out: Percentage kinase inhibition LYN B. Put shortly: as §3
The next assay deals with KSR1 (Homo sapiens (Human), UniProt Q8IVT5). The assay is described as follows: Reaction Biology HotSpot kinase assay. The format is biochemical. To be noted: 500 nM compound; for inhibition at 0.5 µM: read-out: Percentage kinase inhibition KSR1. The procedure, abridged:
as §3

For a further assay, the target named is FRK/PTK5 (Homo sapiens (Human), UniProt P42685). The assay is described as follows: Reaction Biology HotSpot kinase assay. The format is biochemical. To be noted: 500 nM compound; for inhibition at 0.5 µM: read-out: Percentage kinase inhibition FRK/PTK5. The procedure, abridged: as §3
The target of the next assay is JNK1 (Homo sapiens (Human), UniProt P45983). The assay is described as follows: Reaction Biology HotSpot kinase assay. The class given is biochemical. To be noted: 500 nM compound; for inhibition at 0.5 µM: read-out: Percentage kinase inhibition JNK1. The procedure, abridged:
as §3

Another assay has as its target CDK4/cyclin D1 (Homo sapiens (Human), UniProt P11802). Put plainly: Reaction Biology HotSpot kinase assay. The class given is biochemical. To be noted: 500 nM compound; for inhibition at 0.5 µM: read-out: Percentage kinase inhibition CDK4/cyclin D1. The procedure, abridged:
as §2

The target of the next assay is LYN (Homo sapiens (Human), UniProt P07948). Put plainly: Reaction Biology HotSpot kinase assay. To be noted: 500 nM compound; for inhibition at 0.5 µM: read-out: Percentage kinase inhibition LYN. The format is biochemical. Put shortly: as §3
For a further assay, the target named is IGF1R (Homo sapiens (Human), UniProt P08069). The assay is described as follows: Reaction Biology HotSpot kinase assay. The format is biochemical. To be noted: 500 nM compound; for inhibition at 0.5 µM: read-out: Percentage kinase inhibition IGF1R. Put shortly: as §3
The target in the next assay is FYN (Homo sapiens (Human), UniProt P06241). Put plainly: Reaction Biology HotSpot kinase assay. The class given is biochemical. To be noted: 500 nM compound; for inhibition at 0.5 µM: read-out: Percentage kinase inhibition FYN. The procedure, abridged:
as §3

In a further assay the target is MEK1 (Homo sapiens (Human), UniProt Q02750). Put plainly: Reaction Biology HotSpot kinase assay. The class given is biochemical. To be noted: 500 nM compound; for inhibition at 0.5 µM: read-out: Percentage kinase inhibition MEK1. Put shortly:
as §3

A further assay has as its target MELK (Homo sapiens (Human), UniProt Q14680). Put plainly: Reaction Biology HotSpot kinase assay. The format is biochemical. To be noted: 500 nM compound; for inhibition at 0.5 µM: read-out: Percentage kinase inhibition MELK. Put shortly:
as §3

The mark [3] stands for this setting: Homo sapiens, K562, 72 h, read-out: IC50 (proliferation inhibition) Cell line - K562.
The mark [4] stands for this setting: Homo sapiens, K562, Table 18, read-out: Inhibition of proliferation of K562 cell lines (CML).

Several values for one entry are separate records, joined by “and”; a condition that tells them apart may be missing. Equal values may be shown once. Read-outs that look alike come from different tables or passages of the source. A value given as a limit tells only on which side of the number the result lay.

CDK4/cyclin D1, sequence (P11802 whole entry): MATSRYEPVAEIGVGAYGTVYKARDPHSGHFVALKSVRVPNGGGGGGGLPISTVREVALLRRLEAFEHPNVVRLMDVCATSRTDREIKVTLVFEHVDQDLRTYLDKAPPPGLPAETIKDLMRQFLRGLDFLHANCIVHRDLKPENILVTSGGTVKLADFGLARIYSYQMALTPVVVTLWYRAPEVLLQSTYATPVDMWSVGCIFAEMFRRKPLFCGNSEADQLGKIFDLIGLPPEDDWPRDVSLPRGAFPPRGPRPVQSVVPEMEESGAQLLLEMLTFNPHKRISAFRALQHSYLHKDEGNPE
CDK4/cyclin D1, sequence (P24385 whole entry partner): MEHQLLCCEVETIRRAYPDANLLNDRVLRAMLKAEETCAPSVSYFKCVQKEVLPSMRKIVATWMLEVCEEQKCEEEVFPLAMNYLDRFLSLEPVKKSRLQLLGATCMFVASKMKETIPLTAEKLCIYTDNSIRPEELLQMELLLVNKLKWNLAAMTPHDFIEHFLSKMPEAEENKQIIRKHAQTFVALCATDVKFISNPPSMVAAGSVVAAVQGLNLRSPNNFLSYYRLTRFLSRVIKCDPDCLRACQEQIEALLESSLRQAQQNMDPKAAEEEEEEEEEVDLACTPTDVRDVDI
JNK1, sequence (P45983 whole entry): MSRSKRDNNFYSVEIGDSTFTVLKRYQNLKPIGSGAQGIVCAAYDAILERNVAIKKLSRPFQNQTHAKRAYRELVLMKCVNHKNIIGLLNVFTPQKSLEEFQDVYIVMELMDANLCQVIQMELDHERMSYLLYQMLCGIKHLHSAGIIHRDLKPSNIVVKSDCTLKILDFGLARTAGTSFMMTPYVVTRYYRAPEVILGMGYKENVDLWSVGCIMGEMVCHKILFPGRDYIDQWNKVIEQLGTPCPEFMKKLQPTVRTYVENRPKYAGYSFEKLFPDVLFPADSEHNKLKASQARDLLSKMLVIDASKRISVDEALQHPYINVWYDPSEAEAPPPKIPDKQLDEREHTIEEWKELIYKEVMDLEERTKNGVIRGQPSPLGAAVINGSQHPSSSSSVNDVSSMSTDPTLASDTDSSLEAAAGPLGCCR
MEK1, sequence (Q02750 whole entry): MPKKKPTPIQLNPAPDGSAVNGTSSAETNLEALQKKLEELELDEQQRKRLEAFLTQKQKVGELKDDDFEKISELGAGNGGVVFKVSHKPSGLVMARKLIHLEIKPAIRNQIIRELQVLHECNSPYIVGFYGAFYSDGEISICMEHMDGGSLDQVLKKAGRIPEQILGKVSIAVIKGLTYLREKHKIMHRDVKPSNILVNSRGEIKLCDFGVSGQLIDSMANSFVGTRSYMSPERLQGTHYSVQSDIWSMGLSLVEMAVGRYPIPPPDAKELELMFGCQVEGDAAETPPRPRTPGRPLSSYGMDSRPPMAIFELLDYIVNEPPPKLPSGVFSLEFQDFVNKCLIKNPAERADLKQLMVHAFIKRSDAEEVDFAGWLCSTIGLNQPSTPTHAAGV
MELK, sequence (Q14680 whole entry): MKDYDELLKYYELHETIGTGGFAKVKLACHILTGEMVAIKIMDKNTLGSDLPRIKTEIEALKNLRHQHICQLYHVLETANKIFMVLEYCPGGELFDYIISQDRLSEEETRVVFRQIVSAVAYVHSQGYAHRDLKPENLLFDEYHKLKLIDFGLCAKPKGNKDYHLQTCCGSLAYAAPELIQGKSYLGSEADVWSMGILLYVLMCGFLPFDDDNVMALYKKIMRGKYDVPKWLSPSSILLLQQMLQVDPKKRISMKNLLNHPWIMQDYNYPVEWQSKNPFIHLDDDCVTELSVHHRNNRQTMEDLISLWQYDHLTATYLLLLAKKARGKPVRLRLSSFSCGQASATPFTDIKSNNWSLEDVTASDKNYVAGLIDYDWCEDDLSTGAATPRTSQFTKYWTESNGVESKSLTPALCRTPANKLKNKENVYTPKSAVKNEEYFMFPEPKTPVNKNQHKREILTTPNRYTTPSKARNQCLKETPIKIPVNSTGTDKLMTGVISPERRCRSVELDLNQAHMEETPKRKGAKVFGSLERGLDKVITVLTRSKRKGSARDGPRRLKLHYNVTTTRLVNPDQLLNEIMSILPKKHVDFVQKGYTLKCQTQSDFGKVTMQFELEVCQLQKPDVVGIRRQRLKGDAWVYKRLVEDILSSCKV
P38a/MAPK14, sequence (Q16539 whole entry): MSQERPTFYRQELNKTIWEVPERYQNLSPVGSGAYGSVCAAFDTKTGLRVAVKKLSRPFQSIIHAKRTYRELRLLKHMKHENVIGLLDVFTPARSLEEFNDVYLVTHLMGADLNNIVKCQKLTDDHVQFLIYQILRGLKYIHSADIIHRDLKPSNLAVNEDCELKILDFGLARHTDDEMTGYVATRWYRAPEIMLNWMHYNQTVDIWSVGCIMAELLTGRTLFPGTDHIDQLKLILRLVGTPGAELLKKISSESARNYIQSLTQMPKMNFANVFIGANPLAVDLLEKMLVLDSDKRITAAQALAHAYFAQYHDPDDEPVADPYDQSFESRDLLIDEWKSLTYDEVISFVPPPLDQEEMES

For `Cc1ccc(C(=O)Nc2ccc(CN3CCN(C)CC3)c(C(F)(F)F)c2)cc1C#Cc1cnc(N)c2ncccc12` [HSN356, 3-((8-amino-1,7-naphthyridin-5-yl)ethynyl)-4-methyl-N-(4-((4-methylpiperazin-1-yl)methyl)-3-(trifluoromethyl)phenyl)benzamide], the IC50 is 88 nM with NCI H1703 (NSCLC); 2 nM in the assay with K562 (setting [3]); 1.8 ± 0.03 nM in the assay on K562 (setting [4]); 0.4 nM with MV4-11 [2] (Homo sapiens, MV4-11, 72 h). Further, the Kd on ABL1 phosphorylated turned out to be 1.2 nM; at FLT3 (D835V) it was 19 nM; on FLT3 (ITD), 6.7 nM. Moreover, in the assay on MV4-11 [1], the “proliferation inhibition in words, MV4-11 / AML” value was “potent proliferation inhibitors”. In addition, the inhibition at 0.5 µM on c-kit came to 87%.
For `COc1cc2nc(N)nc(C#Cc3cc(C(=O)Nc4ccc(CN5CCN(C)CC5)c(C(F)(F)F)c4)ccc3C)c2cc1OC` [HSN325], the IC50 stood at 135 ± 5.87 nM with MV4-11 [1] (Homo sapiens, MV4-11); 444 nM with K562 (setting [3]); 44 ± 0.1 nM in the assay with K562 (setting [4]); 135 nM in the assay with MV4-11 [2] (Homo sapiens, MV4-11, 72 h). Besides, the inhibition at 0.5 µM on LRRK2 amounted to 0%; on MUSK, 0%; at c-Src, 30%; at P38a/MAPK14, 5%; on LYN B, 35%; on KSR1 it was 0%. The inhibition at 0.5 µM was 49% on FRK/PTK5; 0% on JNK1; 0% on CDK4/cyclin D1; 69% on LYN; 0% on IGF1R; 10% at FYN. Besides, the inhibition at 0.5 µM at MEK1 was determined as 2%; at MELK it was 0%.
In the case of `Cc1ccc(C(=O)Nc2ccc(CN3CCN(C)CC3)c(C(F)(F)F)c2)cc1C#Cc1cnc(N)c2ccccc12` [HSN334, 3-((1-aminoisoquinolin-4-yl)ethynyl)-4-methyl-N-(4-((4-methylpiperazin-1-yl)methyl)-3-(trifluoromethyl)phenyl)benzamide], the IC50 was 98 nM in the assay with NCI H1703 (NSCLC); 1.38 ± 0.1 nM with MV4-11 [1]; less than 1 nM in the assay with MV4-11 [1] (Homo sapiens, MV4-11); 6 nM with K562 (setting [3]); 6.1 ± 0.1 nM with K562 (setting [4]); 1 nM in the assay with MV4-11 [2] (Homo sapiens, MV4-11, 72 h). In addition, the values for the Kd on ABL1 phosphorylated, at FLT3 (D835V) and at FLT3 (ITD) were 12 nM, 120 nM and 19 nM, respectively. The “proliferation inhibition in words, MV4-11 / AML” value in the assay on MV4-11 [1] is listed as “potent proliferation inhibitors”. The inhibition at 0.5 µM at c-kit is 73%.
With `Cc1ccc(C(=O)Nc2ccc(CN3CCN(C)CC3)c(C(F)(F)F)c2)cc1C#Cc1cc(N)nc2ccccc12` [HSN285], in the assay with MV4-11 [1], the “proliferation inhibition in words, MV4-11 / AML” value was “neither potent inhibitors of FLT3 nor active against MV4-11 or MOLM-14”. Moreover, the IC50 in the assay with MV4-11 [1] (Homo sapiens, MV4-11) is 721 ± 5.8 nM; in the assay with K562 (setting [3]), 1100 nM; in the assay with K562 (setting [4]) it was 1102 ± 0.08 nM; in the assay on MV4-11 [2] (Homo sapiens, MV4-11, 72 h) it was 722 nM. The results for the inhibition at 0.5 µM on c-Src and on c-kit were 0% and 31%, respectively.
On to `CN(C)CC(O)CNC(=O)c1ccc(C#Cc2c(N)ncc3ccc(Cl)cc23)cc1` (stereo not drawn) [HSM1702], for which the IC50 is 71 ± 1.1 nM with MV4-11 [1]; 5060 nM in the assay with K562 (72 h, read-out: IC50 (proliferation inhibition) Cell line - K562); 5057 ± 0.45 nM with K562 (Table 18, read-out: Inhibition of proliferation of K562 cell lines (CML)); 71 nM in the assay with MV4-11 [2] (72 h). The “Percentage kinase inhibition LRRK2” value at LRRK2 is 40%. In addition, the “Percentage kinase inhibition MUSK” value at MUSK is reported as 35%. In addition, the “Percentage kinase inhibition c-Src” value at c-Src is reported as 9%. Moreover, the “Percentage kinase inhibition P38a/MAPK14” value at P38a/MAPK14 came to 0%. For the same compound, the “Percentage kinase inhibition LYN B” value at LYN B is listed as 0%. Further, at KSR1, the “Percentage kinase inhibition KSR1” value was determined as 0%. In addition, on FRK/PTK5, the “Percentage kinase inhibition FRK/PTK5” value was 0%. Further, the “% inhibition of c-Kit” value on c-kit came out at 83%. Also, the “Percentage kinase inhibition JNK1” value on JNK1 is recorded as 0%. In addition, at CDK4/cyclin D1, the “Percentage kinase inhibition CDK4/cyclin D1” value is on record as 16%. For the same compound, the “Percentage kinase inhibition LYN” value on LYN amounted to 6%. In addition, at IGF1R, the “Percentage kinase inhibition IGF1R” value was determined as 3%. Further, the “Percentage kinase inhibition FYN” value at FYN was 16%. In addition, the “Percentage kinase inhibition MEK1” value on MEK1 came out at 0%. On MELK, the “Percentage kinase inhibition MELK” value is on record as 12%.
In the case of `Cc1ccc(C(=O)Nc2ccc(CN3CCN(C)CC3)c(C(F)(F)F)c2)cc1C#Cc1c(N)ncc2ccc(Cl)cc12` [HSN286], the IC50 with NCI H1703 (NSCLC) amounted to 50 nM; in the assay on K562 (setting [4]), 3.5 ± 0.02 nM; in the assay on MV4-11 [2] (Homo sapiens, MV4-11, 72 h), 0.4 nM. The Kd at ABL1 phosphorylated is 7.9 nM; on FLT3 (D835V), 120 nM; on FLT3 (ITD) it was 27.6 nM and 26 nM. The inhibition at 0.5 µM on LRRK2 is 6%; at MUSK, 13%; on P38a/MAPK14, 81%; on LYN B, 95%; on KSR1, 0%; at FRK/PTK5, 95%. The inhibition at 0.5 µM turned out to be 61% on c-kit; 7% at JNK1; 0% at CDK4/cyclin D1; 98% at LYN; 0% on IGF1R; 100% at FYN. The inhibition at 0.5 µM on MEK1 was 0%; on MELK, 27%.
